Measurements published in ChEMBL document CHEMBL4507266, “Data for DCP probe BAY-784” (2021).

What was measured:
[1] = target: BMP-2-inducible protein kinase (Homo sapiens) (UniProt Q9NSY1); conditions: Compound concentration 1000.0 nM
[2] = target: Tyrosine-protein kinase Blk (Homo sapiens) (UniProt P51451); conditions: Compound concentration 1000.0 nM
[3] = target: Citron Rho-interacting kinase (Homo sapiens) (UniProt O14578); conditions: Compound concentration 1000.0 nM
[4] = target: Tyrosine-protein kinase CSK (Homo sapiens) (UniProt P41240); conditions: Compound concentration 1000.0 nM
[5] = target: Serine/threonine-protein kinase MRCK gamma (Homo sapiens) (UniProt Q6DT37); conditions: Compound concentration 1000.0 nM
[6] = test system: Epidermal growth factor receptor (Homo sapiens), P00533 [UNDEFINED MUTATION]; conditions: Compound concentration 1000.0 nM
[7] = target: Ephrin type-B receptor 2 (Homo sapiens) (UniProt P29323); conditions: Compound concentration 1000.0 nM
[8] = target: Serine/threonine-protein kinase/endoribonuclease IRE1 (Homo sapiens) (UniProt O75460); conditions: Compound concentration 1000.0 nM
[9] = target: Cyclin-G-associated kinase (Homo sapiens) (UniProt O14976); conditions: Compound concentration 1000.0 nM
[10] = test system: eIF-2-alpha kinase GCN2 (Homo sapiens), Q9P2K8 [S808G]; conditions: Compound concentration 1000.0 nM
[11] = target: Insulin-like growth factor 1 receptor (Homo sapiens) (UniProt P08069); conditions: Compound concentration 1000.0 nM
[12] = target: Serine/threonine-protein kinase LATS2 (Homo sapiens) (UniProt Q9NRM7); conditions: Compound concentration 1000.0 nM
[13] = target: Serine/threonine-protein kinase STK11 (Homo sapiens) (UniProt Q15831); conditions: Compound concentration 1000.0 nM
[14] = target: Tyrosine-protein kinase Lyn (Homo sapiens) (UniProt P07948); conditions: Compound concentration 1000.0 nM
[15] = target: Mitogen-activated protein kinase kinase kinase 2 (Homo sapiens) (UniProt Q9Y2U5); conditions: Compound concentration 1000.0 nM
[16] = target: Mitogen-activated protein kinase kinase kinase kinase 3 (Homo sapiens) (UniProt Q8IVH8); conditions: Compound concentration 1000.0 nM
[17] = target: Mitogen-activated protein kinase kinase kinase kinase 5 (Homo sapiens) (UniProt Q9Y4K4); conditions: Compound concentration 1000.0 nM
[18] = target: MAP kinase-activated protein kinase 5 (Homo sapiens) (UniProt Q8IW41); conditions: Compound concentration 1000.0 nM
[19] = target: Serine/threonine-protein kinase MARK2 (Homo sapiens) (UniProt Q7KZI7); conditions: Compound concentration 1000.0 nM
[20] = target: MAP/microtubule affinity-regulating kinase 3 (Homo sapiens) (UniProt P27448); conditions: Compound concentration 1000.0 nM
[21] = target: Myosin-IIIb (Homo sapiens) (UniProt Q8WXR4); conditions: Compound concentration 1000.0 nM
[22] = target: Serine/threonine-protein kinase Nek6 (Homo sapiens) (UniProt Q9HC98); conditions: Compound concentration 1000.0 nM
[23] = target: Cyclin-dependent kinase 14 (Homo sapiens) (UniProt O94921); conditions: Compound concentration 1000.0 nM
[24] = target: Phosphorylase b kinase regulatory subunit alpha, liver isoform (Homo sapiens) (UniProt P46019); conditions: Compound concentration 1000.0 nM
[25] = target: Phosphatidylinositol 4-phosphate 3-kinase C2 domain-containing subunit beta (Homo sapiens) (UniProt O00750); conditions: Compound concentration 1000.0 nM
[26] = target: Phosphatidylinositol 4,5-bisphosphate 3-kinase catalytic subunit alpha isoform (Homo sapiens) (UniProt P42336); conditions: Compound concentration 1000.0 nM
[27] = target: Serine/threonine-protein kinase D1 (Homo sapiens) (UniProt Q15139); conditions: Compound concentration 1000.0 nM
[28] = test system: Proto-oncogene tyrosine-protein kinase receptor Ret (Homo sapiens), P07949 [M918T]; conditions: Compound concentration 1000.0 nM
[29] = target: SRSF protein kinase 3 (Homo sapiens) (UniProt Q9UPE1); conditions: Compound concentration 1000.0 nM
[30] = target: Testis-specific serine/threonine-protein kinase 3 (Homo sapiens) (UniProt Q96PN8); conditions: Compound concentration 1000.0 nM
[31] = target: Serine/threonine-protein kinase 32A (Homo sapiens) (UniProt Q8WU08); conditions: Compound concentration 1000.0 nM
[32] = target: 5-hydroxytryptamine receptor 1E (Homo sapiens) (UniProt P28566); conditions: Compound concentration 10.0 uM
[33] = target: Kappa-type opioid receptor (Homo sapiens) (UniProt P41145); conditions: Compound concentration 10.0 uM
[34] = target: T1, Alpha-2B adrenergic receptor (Homo sapiens) (UniProt P18089); conditions: Compound concentration 10.0 uM
T1 sequence (whole entry): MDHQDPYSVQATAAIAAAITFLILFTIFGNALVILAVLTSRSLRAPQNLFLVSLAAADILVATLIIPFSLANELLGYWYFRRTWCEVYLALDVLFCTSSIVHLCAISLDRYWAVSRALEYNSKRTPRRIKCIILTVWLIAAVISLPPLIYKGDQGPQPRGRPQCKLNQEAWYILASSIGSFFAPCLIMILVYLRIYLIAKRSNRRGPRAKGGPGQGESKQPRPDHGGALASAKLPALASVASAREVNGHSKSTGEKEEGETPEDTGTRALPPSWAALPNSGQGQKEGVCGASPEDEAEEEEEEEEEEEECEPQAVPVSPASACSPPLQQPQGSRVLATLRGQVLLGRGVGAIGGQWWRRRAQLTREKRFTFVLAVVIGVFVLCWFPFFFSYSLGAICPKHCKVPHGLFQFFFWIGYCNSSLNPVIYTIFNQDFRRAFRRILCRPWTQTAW

Chain of Cyclin-dependent kinase 14 (Homo sapiens) (O94921 whole entry, canonical isoform): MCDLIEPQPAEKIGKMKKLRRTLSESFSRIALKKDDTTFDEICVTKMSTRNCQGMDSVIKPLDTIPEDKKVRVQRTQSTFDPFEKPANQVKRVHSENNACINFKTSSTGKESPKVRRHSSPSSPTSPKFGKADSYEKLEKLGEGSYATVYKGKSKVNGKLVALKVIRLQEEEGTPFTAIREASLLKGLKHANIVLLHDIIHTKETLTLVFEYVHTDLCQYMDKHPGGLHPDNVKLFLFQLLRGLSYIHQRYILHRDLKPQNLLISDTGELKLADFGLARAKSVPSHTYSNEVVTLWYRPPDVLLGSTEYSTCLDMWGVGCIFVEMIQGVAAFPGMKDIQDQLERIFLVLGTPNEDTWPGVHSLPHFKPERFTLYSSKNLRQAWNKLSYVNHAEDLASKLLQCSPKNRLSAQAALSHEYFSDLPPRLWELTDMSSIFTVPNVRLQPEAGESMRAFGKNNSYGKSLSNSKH
Chain of MAP/microtubule affinity-regulating kinase 3 (Homo sapiens) (P27448 whole entry, looked up): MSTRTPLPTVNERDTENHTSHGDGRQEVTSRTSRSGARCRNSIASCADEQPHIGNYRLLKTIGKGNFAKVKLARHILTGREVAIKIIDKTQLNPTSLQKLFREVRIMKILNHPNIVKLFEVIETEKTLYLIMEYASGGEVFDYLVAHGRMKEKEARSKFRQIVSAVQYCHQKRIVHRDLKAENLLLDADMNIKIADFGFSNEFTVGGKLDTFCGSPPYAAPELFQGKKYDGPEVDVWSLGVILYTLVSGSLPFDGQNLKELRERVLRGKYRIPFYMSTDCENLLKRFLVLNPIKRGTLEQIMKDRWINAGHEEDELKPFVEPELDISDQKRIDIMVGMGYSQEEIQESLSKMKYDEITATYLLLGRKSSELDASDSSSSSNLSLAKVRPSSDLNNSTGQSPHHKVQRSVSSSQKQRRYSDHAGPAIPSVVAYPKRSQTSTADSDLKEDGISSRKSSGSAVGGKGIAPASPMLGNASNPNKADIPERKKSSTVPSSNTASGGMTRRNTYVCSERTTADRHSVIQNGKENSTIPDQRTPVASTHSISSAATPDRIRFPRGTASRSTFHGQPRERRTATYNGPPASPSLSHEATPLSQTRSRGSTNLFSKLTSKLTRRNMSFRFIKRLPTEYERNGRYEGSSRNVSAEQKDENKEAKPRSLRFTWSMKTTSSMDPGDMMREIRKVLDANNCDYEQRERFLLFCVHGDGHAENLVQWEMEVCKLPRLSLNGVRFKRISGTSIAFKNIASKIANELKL
Chain of Serine/threonine-protein kinase D1 (Homo sapiens) (Q15139 whole entry): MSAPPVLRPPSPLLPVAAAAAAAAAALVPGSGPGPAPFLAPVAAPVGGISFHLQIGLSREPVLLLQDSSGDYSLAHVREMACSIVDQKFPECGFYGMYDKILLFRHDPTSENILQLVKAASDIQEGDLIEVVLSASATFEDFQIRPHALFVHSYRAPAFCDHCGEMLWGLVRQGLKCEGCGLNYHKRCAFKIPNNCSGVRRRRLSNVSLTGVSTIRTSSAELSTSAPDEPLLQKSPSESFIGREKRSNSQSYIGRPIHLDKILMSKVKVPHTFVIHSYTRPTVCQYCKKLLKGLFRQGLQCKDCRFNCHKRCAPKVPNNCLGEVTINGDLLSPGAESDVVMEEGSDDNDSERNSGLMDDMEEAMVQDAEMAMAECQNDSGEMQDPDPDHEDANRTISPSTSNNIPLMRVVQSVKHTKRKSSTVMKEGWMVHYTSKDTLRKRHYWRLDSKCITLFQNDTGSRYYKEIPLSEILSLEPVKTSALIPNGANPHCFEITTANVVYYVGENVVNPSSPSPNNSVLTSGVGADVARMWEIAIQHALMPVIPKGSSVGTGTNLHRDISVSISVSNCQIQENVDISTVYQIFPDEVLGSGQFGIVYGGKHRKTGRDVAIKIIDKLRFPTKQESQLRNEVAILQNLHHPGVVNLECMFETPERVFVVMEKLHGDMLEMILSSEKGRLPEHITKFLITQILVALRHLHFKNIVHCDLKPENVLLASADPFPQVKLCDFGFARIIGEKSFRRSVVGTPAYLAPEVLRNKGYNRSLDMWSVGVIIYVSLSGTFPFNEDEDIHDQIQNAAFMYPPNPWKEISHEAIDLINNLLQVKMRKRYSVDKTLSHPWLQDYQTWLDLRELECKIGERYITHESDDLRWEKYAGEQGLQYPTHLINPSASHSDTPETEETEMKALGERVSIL
Chain of Kappa-type opioid receptor (Homo sapiens) (P41145 whole entry): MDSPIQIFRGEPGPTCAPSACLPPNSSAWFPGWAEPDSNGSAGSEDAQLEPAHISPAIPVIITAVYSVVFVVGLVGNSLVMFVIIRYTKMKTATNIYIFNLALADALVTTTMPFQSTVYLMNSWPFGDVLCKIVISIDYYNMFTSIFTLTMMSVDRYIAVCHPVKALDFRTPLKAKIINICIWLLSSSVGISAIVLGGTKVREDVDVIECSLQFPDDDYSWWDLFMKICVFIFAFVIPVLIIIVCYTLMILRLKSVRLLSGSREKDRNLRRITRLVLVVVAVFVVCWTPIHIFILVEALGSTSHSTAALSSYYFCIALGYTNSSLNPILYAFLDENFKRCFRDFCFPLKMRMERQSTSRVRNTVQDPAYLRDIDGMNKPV
Chain of Testis-specific serine/threonine-protein kinase 3 (Homo sapiens) (Q96PN8 whole entry): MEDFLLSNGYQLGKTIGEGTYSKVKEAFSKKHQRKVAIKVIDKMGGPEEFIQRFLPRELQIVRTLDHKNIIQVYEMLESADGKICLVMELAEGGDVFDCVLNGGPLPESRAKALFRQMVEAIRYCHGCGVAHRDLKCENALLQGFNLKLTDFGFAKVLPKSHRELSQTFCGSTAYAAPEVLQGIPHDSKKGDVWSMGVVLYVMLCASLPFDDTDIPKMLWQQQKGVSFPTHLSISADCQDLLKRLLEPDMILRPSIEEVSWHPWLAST
Chain of SRSF protein kinase 3 (Homo sapiens) (Q9UPE1 whole entry): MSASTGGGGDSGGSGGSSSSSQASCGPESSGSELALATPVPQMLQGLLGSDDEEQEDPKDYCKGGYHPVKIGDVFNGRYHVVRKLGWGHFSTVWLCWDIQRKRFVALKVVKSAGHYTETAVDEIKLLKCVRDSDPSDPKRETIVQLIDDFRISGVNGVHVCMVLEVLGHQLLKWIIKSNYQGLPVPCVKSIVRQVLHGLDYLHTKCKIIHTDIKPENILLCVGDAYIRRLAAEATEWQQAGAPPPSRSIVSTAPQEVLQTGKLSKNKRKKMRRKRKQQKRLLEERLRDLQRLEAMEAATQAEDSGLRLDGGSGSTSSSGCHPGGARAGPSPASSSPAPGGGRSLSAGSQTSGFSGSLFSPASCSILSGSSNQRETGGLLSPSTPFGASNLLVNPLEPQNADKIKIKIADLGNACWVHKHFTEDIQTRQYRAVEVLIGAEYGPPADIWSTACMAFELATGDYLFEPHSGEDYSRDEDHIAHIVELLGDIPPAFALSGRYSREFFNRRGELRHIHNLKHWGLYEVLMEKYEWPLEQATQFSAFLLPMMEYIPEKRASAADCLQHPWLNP
Chain of MAP kinase-activated protein kinase 5 (Homo sapiens) (Q8IW41 whole entry): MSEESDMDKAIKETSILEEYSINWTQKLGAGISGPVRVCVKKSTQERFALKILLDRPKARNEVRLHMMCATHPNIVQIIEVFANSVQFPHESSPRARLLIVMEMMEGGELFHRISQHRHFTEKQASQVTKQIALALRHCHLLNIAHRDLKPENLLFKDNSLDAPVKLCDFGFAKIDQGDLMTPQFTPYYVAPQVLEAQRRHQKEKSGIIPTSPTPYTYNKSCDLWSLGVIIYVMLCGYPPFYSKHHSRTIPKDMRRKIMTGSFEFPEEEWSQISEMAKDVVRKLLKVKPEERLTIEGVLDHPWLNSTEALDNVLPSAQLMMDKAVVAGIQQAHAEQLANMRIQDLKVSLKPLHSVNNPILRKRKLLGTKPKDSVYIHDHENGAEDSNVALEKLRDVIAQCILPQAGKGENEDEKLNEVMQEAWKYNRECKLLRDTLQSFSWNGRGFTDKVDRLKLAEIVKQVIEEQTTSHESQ
Chain of Tyrosine-protein kinase Blk (Homo sapiens) (P51451 2-505 limits assumed): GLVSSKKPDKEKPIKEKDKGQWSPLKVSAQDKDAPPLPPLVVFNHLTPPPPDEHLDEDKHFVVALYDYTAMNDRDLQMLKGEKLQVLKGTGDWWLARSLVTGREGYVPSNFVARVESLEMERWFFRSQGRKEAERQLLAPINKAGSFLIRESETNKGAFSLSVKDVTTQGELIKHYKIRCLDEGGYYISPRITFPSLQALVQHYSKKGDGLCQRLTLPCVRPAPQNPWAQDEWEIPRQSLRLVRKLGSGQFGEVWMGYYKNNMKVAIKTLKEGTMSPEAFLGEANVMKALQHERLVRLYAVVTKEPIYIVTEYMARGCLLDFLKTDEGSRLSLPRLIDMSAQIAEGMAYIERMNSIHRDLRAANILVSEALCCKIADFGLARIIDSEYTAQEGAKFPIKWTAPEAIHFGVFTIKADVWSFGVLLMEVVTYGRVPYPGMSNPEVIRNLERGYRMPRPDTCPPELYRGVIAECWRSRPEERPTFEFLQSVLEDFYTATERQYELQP
Chain of Serine/threonine-protein kinase Nek6 (Homo sapiens) (Q9HC98 whole entry): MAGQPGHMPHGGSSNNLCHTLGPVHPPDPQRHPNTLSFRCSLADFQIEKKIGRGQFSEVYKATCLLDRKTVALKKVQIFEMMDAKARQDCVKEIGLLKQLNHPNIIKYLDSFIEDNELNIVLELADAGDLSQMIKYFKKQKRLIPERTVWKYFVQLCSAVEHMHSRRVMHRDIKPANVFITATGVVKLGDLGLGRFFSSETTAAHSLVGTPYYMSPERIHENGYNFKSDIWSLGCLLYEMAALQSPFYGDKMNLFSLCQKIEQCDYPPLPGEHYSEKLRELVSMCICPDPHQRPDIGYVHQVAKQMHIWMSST

O=C(NCc1ncc(C(F)(F)F)cc1Cl)c1ccc2c(c1)C1(CCS(=O)(=O)CC1)[C@H](C1CC1)N2S(=O)(=O)c1ccc(F)cc1 [BAY-784]
inactive: residual activity [1] 96% | residual activity [2] 78% | residual activity [3] 100% | residual activity [4] 97% | residual activity [5] 100% | residual activity [6] 100% | residual activity [7] 100% | residual activity [8] 78% | residual activity [9] 97% | residual activity [10] 88% | residual activity [11] 100% | residual activity [12] 100% | residual activity [13] 100% | residual activity [14] 100% | residual activity [15] 66% | residual activity [16] 100% | residual activity [17] 82% | residual activity [18] 100% | residual activity [19] 100% | residual activity [20] 89% | residual activity [21] 74% | residual activity [22] 100% | residual activity [23] 100% | residual activity [24] 96% | residual activity [25] 100% | residual activity [26] 100% | residual activity [27] 93% | residual activity [28] 96% | residual activity [29] 100% | residual activity [30] 87% | residual activity [31] 100% | inhibition [32] 10.4% | inhibition [33] 14.4% | inhibition [34] 13.5%

O=C(NCc1ncc(C(F)(F)F)cc1Cl)c1ccc2c(c1)C1(CCS(=O)(=O)CC1)[C@@H](C1CC1)N2S(=O)(=O)c1ccc(F)cc1 [BAY-786]
inactive: residual activity [1] 76% | residual activity [2] 100% | residual activity [3] 84% | residual activity [4] 96% | residual activity [5] 93% | residual activity [6] 87% | residual activity [7] 100% | residual activity [8] 65% | residual activity [9] 96% | residual activity [10] 100% | residual activity [11] 88% | residual activity [12] 99% | residual activity [13] 100% | residual activity [14] 100% | residual activity [15] 88% | residual activity [16] 100% | residual activity [17] 100% | residual activity [18] 100% | residual activity [19] 63% | residual activity [20] 100% | residual activity [21] 100% | residual activity [22] 95% | residual activity [23] 100% | residual activity [24] 84% | residual activity [25] 90% | residual activity [26] 100% | residual activity [27] 76% | residual activity [28] 100% | residual activity [29] 100% | residual activity [30] 97% | residual activity [31] 99% | inhibition [32] -1.55% | inhibition [33] 4.54% | inhibition [34] -1.68%
